Assay results taken from US8642040B2, “Methods for promoting myelination, neuronal survival and oligodendrocyte differentiation via administration of Sp35 or TrkA antagonists” (Biogen Idec MA Inc., priority 2006, dated 2014).

Experiments:
Assay type in all cases: cell-based, rat
[1] = test system: DRG-oligodendrocyte co-cultures; assay: DRG-oligodendrocyte co-culture myelination, Western blot for MBP and MAG; conditions: FIG. 7
Excerpt: CNS myelination in the presence of NGF and either an Sp35 antagonist (Sp35-DN) or a TrkA antagonist (TrkA-DN) was examined. 3 week old DRG and oligodendrocyte cocultures (prepared as described in Example 3) were infected with lentiviruses, at an MOI of 2 per cell, expressing either full-length or dominant negative Sp35, full-length or dominant negative Nogo Receptor, full-length or dominant negative Taj, full-length or dominant negative p75, and full-length or dominant negative TrkA. Lentiviruses were prepared as described in Example 3 and as follows. Rat p75 full length (FL-p75, amino acid residues 1-425), p75 dominant negative (DN-p75, amino acid residues 1-275), human TrkA full length (FL-TrkA, amino acid residues 1-796), TrkA dominant negative (DN-TrkA, amino acid residues 1-441), human Taj full length (FL-Taj, amino acid residues 1-417), Taj dominant negative (DN-Taj, amino acid residues 1-192), rat Nogo receptor full length (FL-NgR, amino acid residues 1-473), Nogo receptor dominant negative (DN-NgR, amino acid residues 28-310). DNA sequence was inserted into the NotI and BamHI sites of HRST-IRESeGFP lentivirus vector. Plasmids were transfected into 293 cells to produce lentivirus as described in Rubinson et al. Nat. Genetics 33:401-406 (2003).
Co-culture lysates were examined at 3 weeks and analyzed by Western blot as described previously. The blots were probed with polyclonal antibodies to MAG and to MBP. The myelin proteins MAG and MBP were used as markers for myelination.
The TrkA compound antagonist K525a was also tested in DRG-oligodendrocyte cocultures for its ability to promote myelination.
The myelin proteins MAG and MBP were used to determine whether TrkA was upstream of Sp35 in inhibiting myelination in DRG-oligodendrocyte co-cultures. Oligodendrocyte-DRG co-cultures were prepared as described in Example 3. […]
Fresh media was changed every three days. […] Lysates were subjected to 4-20% SDS-PAGE, and analyzed by Western blotting with an antibody to MBP, MAG and Sp35. […]

Sp35 [2] = assay: RT-PCR for Sp35 in purified DRGs with or without NGF; conditions: 100 ng/ml NGF for 24 hours; FIG. 9A
Description: RT-PCR for TrkA, Sp35 and GAPDH was performed on purified OPCs, SCs and DRGs in the presence or absence of NGF or BDNF as follows. Cultures of OPCs, SCs and DRGs were prepared as described above. Wells of the tissue culture dishes were treated with either 100 ng/ml of NGF or 100 ng/ml of BDNF for 24 hours prior to mRNA isolation. Cellular mRNA was extracted using the Absolutely RNA miniprep kit (Stratagene). Equal amounts of mRNA were subjected to RT-PCR. The primer sets used for the PCR reactions are as follows: […]

Sp35 [3] = assay: Sp35 expression in co-cultures, DRG neuronal and oligodendrocyte cultures treated with NGF
Description: Oligodendrocyte—DRG co-cultures were prepared as described previously. Various concentrations of NGF (0, 10, 50 and 100 ng/ml) were added to oligodendrocyte—DRG co-cultures, DRG neuronal cultures and oligodendrocyte cultures. In all cultures expression of Sp35 and phosphorylated TrkA was examined by […] or immuno-histochemical staining.

[4] = test system: Oligodendrocyte/DRG co-cultures; assay: Oligodendrocyte/DRG co-culture myelination, MBP immunofluorescence
Description: Enriched populations of oligodendrocytes were grown from Female Long Evans post-natal day 2 (P2) rats. Briefly, the forebrain was dissected out and placed in Hank's buffered salt solution (HBSS) (Invitrogen, Grand Island, N.Y.). The tissue was cut into 1 mm fragments and incubated at 37° C. for 15 min in 0.01% trypsin and 10 μg/ml DNase. Dissociated cells were plated on poly-L-lysine-coated T75 tissue culture flasks and grown at 37° C. for 10 days in DMEM medium with 20% fetal calf serum (Invitrogen). Oligodendrocyte precursors (A2B5+) were collected by shaking the flask overnight at 200 rpm at 37° C., resulting in a 95% pure population. Cultures were maintained in high glucose DMEM medium containing FGF/PDGF (Peprotech) (10 ng/ml) for 1 week.
DRG cultures were prepared as follows. Embryonic dorsal root ganglia (DRG) neurons were grown in vitro as previously described in Mi et al., Nat. Neurosci. 8:745-51 (2005) and Kleitman et al. “Tissue culture methods for the study of myelination.” Culturing Nerve Cells. Banker and Goslin, eds. Cambridge Mass.: MIT Press, 337-377 (1991). Briefly, dorsal root ganglia, dissected from embryonic day 15 (E15) Long Evans rats, were plated on poly-D-lysine (100 μg/ml)-coated cover slips for 2 weeks and grown in Neurobasal medium supplemented with B27 (Invitrogen) in the presence or absence of 100 ng/ml nerve growth factor (BD Biosciences). To remove proliferating glial cells, the cultures were pulsed twice with fluorodeoxyuridine (20 μM) from days 2-6 and from days 8-10.
Oligodendrocyte-DRG co-cultures were prepared as follows. A2B5+ oligodendrocyte progenitor cells and DRG neuron drop cultures were prepared as above. One day after oligodendrocyte progenitors were added to DRG neurons, co-cultures were infected with lentivirus expressing GFP (control), dominant-negative Sp35 or full length Sp35 at 2 MOI per cell. DNA sequences used for lentiviral construction were, mouse Sp35 full length (FL-Sp35, encoding amino acid residues 34-614), Sp35 dominant negative (DN-Sp35, encoding amino acid residues 34-581). DNA sequences were inserted into the NotI and BamHI sites of HRST-IRESeGFP lentivirus vector. Plasmids were transfected into 293FT cells to produce lentivirus as described in Rubinson et al. Nat. Genetics 33:401-406 (2003).
Oligodendrocyte/DRG co-cultures were prepared as described in Example 3. The co-cultures were treated with increasing concentrations of Sp35-Fc or control-Fc for 3 weeks. Monoclonal antibodies against MBP were used to determine MBP protein concentration and for immunofluorescence experiments (Sternberger Monoclonals). […]

`COC(=O)[C@@]1(O)C[C@H]2O[C@]1(C)n1c3ccccc3c3c4c(c5c6ccccc6n2c5c31)C(=O)NC4` [K525a] was tested, and the “myelination, as measured by the presence of MBP” value (“myelination, as measured” for short) ([1]; concentration 1 nM) was “promoted myelination” and the “myelination, as measured” value ([1]; concentration 3 nM) was “promoted myelination”.

With “NGF: Nerve Growth Factor, the TrkA ligand” the “Sp35 mRNA in DRGs” value (Sp35 [2]) was “induction”, the “Sp35 in DRG neurons by immunofluorescence” value (Sp35 [3]; 100 ng/ml of NGF, FIG. 10) was “Upregulation” and the “Sp35 expression in oligodendrocyte/DRG cocultures” value (Sp35 [3]; NGF 0, 10, 50 and 100 ng/ml, FIG. 8) was “increased”. The “Sp35 expression in cultured oligodendrocytes” value (Sp35 [3]; NGF 0, 10, 50 and 100 ng/ml, FIG. 9) was “remained constant” and the myelination in co-culture ([4]; in the presence of NGF) was “inhibited”.

B1: Sp35-Fc: extra-cellular portion of human Sp35 (residues 1-532) fused to the hinge and Fc region of human IgG1 (protein)
chain: TGCPPRCECSAQDRAVLCHRKRFVAVPEGIPTETRLLDLGKNRIKTLNQDEFASFPHLEELELNENIVSAVEPGAFNNLFNLRTLGLRSNRLKLIPLGVFTGLSNLTKLDISENKIVILLDYMFQDLYNLKSLEVGDNDLVYISHRAFSGLNSLEQLTLEKCNLTSIPTEALSHLHGLIVLRLRHLNINAIRDYSFKRLYRLKVLEISHWPYLDTMTPNCLYGLNLTSLSITHCNLTAVPYLAVRHLVYLRFLNLSYNPISTIEGSMLHELLRLQEIQLVGGQLAVVEPYAFRGLNYLRVLNVSGNQLTTLEESVFHSVGNLETLILDSNPLACDCRLLWVFRRRWRLNFNRQQPTCATPEFVQGKEFKDFPDVLLPNYFTCRRARIRDRKAQQVFVDEGHTVQFVCRADGDPPPAILWLSPRKHLVSAKSNGRLTVFPDGTLEVRYAQVQDNGTYLCIAANAGGNDSMPAHLHVRSYSPDWPHQPNKTFAFISNQPGE
modifications: left off: a dimerising Fc or GST
notes: extra-cellular portion of human Sp35 (residues 1-532) fused to the hinge and Fc region of human IgG1
In the case of B1, the “myelination, as measured” value ([1]; Sp35-Fc as comparator for K525a) is reported as “promoted myelination”, the “MBP positive oligodendrocytes and myelin internodes” value ([4]; 100 ng/ml NGF, 14 days, compared to controls, FIG. 13) is reported as “enhancement” and the “number of MBP+ oligodendrocytes” value ([4]; co-culture in the presence of NGF, treated 3 weeks, vs control-Fc, FIG. 5) is reported as “increased”. The “number of MBP+ cells, dependence on concentration” value ([4]; increasing concentrations of Sp35-Fc, 3 weeks, NGF present, FIG. 5C) was “increased as the concentration of the Sp35 antagonist increased”.
